Data taken from US11903999B2, “Combination of AS1411 and SAPC-DOPS for the treatment of glioblastoma multiforme” (University of Cincinnati, priority 2017, dated 2024).

How the values were obtained:
U87-MG cells [1] = conditions: cited from earlier work
non-GBM tumor cell lines = conditions: cited from earlier work
U87-MG cells [2] = assay: Methuosis-like vacuolization by microscopy; assay type: cell-based; conditions: 15 μM AS1411 for 72 hrs
Protocol: FIG. 5. A) AS1411 induces methuosis-like vacuolization in U87-MG Cells, untreated U87-MG cells; B) […] cells treated with 10 μM MIPP for 24 hrs; C) U87-MG cells treated with 15 μM AS1411 for 72 hrs. D) U87-MG cells treated with 15 μM AS1411 for 192 hrs. E) Quantification of number of cells with >5 vacuoles.
U87-MG cells were grown to approximately 50% confluency in standard flat bottom 6 well cell culture plates. The cells were then treated with either 10 μM MIPP (a compound previously shown to induce methuosis) or 15 μM AS1411 for 72 hrs. Photos were taken comparing the two treatment wells with untreated control cells, using a microscope with camera.

[3] = test system: Caspase-3 in U87-MG cells; assay: Caspase-3 levels as a measure of apoptosis (EnzCheck Caspase-3 Assay Kit); assay type: cell-based; conditions: 15 μM AS1411 for 72 hrs vs 100 μM TMZ for 48 hrs
Protocol: Caspase activity was measured with a […]. Caspase levels were normalized to total cellular protein with BCA protein assay. Error bars show mean +/−SD.
U87-MG cells were seeded onto standard 60 mm cell culture dishes at 50% confluency. After 24 hrs, 15 μM of AS1411 in DMEM and 100 μM of temozolomide (TMZ) in DMEM were added to each dish. Cells were harvested at 72 hrs and 48 hrs respectively and analyzed using the EnzCheck Caspase-3 Assay Kit from Molecular Probes utilizing the Z-DEVD-AMC substrate (incubated for 30 minutes). Fluorescence excitation/emission: 340/440 nm) was measured with a standard fluorometer.

U87-MG cells [4] = assay: Cell surface PS (Annexin V-FITC) and propidium iodide by flow cytometry; assay type: cell-based; conditions: 6 μM AS1411
Protocol: FIG. 3. […] Error bars show mean +/−SD with **p<0.02 by Student's t-test when compared to control (untreated) cells.
U87-MG cells were seeded onto standard 60 mm cell culture dishes at ˜50% confluency. After 24 hrs, 6 μM of AS1411 in DMEM was added to each dish at 24, 48, and 72 hour time points. Cells were then stained with Annexin V-FITC using a standard staining protocol and evaluated for surface PS levels using flow cytometry.

In the case of “5′-d(GGTGGTGGTGGTTGTGGTGGTGGTGG)-3′ [AS1411]”, the IC50 (U87-MG cells [1]) is listed as 10 µM, the IC50 (non-GBM tumor cell lines) is listed as 1 µM and the “morphologic changes, vacuolization” value (U87-MG cells [2]) is listed as “induces morphologic changes including vacuolization”. For the same substance, the caspase activity [3] was “does not increase caspase activity as much as the apoptotic drug TMZ”, the “propidium iodide (PI) positive (dead) cells” value (U87-MG cells [4]) was “without increasing PI” and the “surface PS (Annexin V-FITC)” value (U87-MG cells [4]; 24, 48, 72 hrs) was “increases surface PS”.
